Tests used:
[1] = test system: MV522 human non-small cell lung tumor xenograph model; test: Example 2: MV522 xenograft, NPI-2358 1, 4 or 24 h after docetaxel (TGI/TGD); assay type: in vivo, athymic nu/nu mice; settings: for MDS day +/− SD: endpoint 1.0 cm^3
Experimental: In vivo evaluation of plinabulin in combination with docetaxel in the MV522 human non-small cell lung tumor xenograph model in athymic nu/nu mice: schedule of drug administration
The objective of the example was to evaluate the potential additive or synergistic effects of plinabulin (NPI-2358) in combination with docetaxel by administering NPI-2358 at various time points (1 h, 4 h, or 24 h) after docetaxel in the MV522 model. Significant endpoints for this experiment included mean tumor growth inhibition (TGI) or regression, tumor growth delay (TGD) in large tumor, weight loss, and mortality.
(§1) Female nude mice (Hsd: Athymic Nude-Foxn1^nu) between 5 and 6 weeks of age weighing approximately 20 grams were obtained from Harlan, Inc. (Madison, Wis.). Animals were injected subcutaneously (SC) with approximately 1×10^7 MV522 cells harvested from tissue culture (1:1 matrigel:media). When tumors grew to approximately 100 cubic millimeters (mm^3) in size, animals were pair-matched by tumor size into treatment and control groups. Animals were ear-tagged and followed individually throughout the experiment.
(§2) Initial doses were administered on Day 1 following pair-matching. The experiment was carried out as both a tumor growth inhibition (TGI) and tumor growth delay (TGD) study. For TGI, the endpoint was when the average tumor volume of Group 1 reached 1.2 cm^3. For TGD, the endpoint was reached when each individual animal's tumor volume reached 1.0 cm^3. A 10 mg/ml stock vial of docetaxel was diluted in 0.9% saline on each day of dosing and administered intravenously (IV).
Same as in Example 1. This arm of the study was ended on Day 80 or 53 at the sponsor's request. Long-term survivors (animals not reaching the tumor volume endpoint by the preset time period (LTS)) were assigned an IDS value of the last study day (Day 80) and included in these calculations.
For comparison of activity with standard agent(s), gross or net log10 cell-kill values were converted to an arbitrary activity rating below: […]

[2] = Example 2: animal weight and drug toxicity in MV522 xenograft mice; assay type: in vivo, athymic nu/nu mice
Experimental: as §1, §2
Individual and group mean weights ±SD and percent weight change were recorded twice weekly until study completion beginning Day 1. Group weights through Day 24 or 53 and weight nadir values are reported.

[3] = G2: docetaxel 15 mg/kg IV + NPI-2358 vehicle 1 h after
[4] = G3: docetaxel 15 mg/kg IV + NPI-2358 vehicle 4 h after
[5] = G4: docetaxel 15 mg/kg IV + NPI-2358 vehicle 24 h after
[6] = G11: docetaxel 25 mg/kg IV + NPI-2358 vehicle 1 h after
[7] = G12: docetaxel 25 mg/kg IV + NPI-2358 vehicle 4 h after
[8] = G13: docetaxel 25 mg/kg IV + NPI-2358 vehicle 24 h after

CC(=O)O[C@@]12CO[C@@H]1C[C@H](O)[C@@]1(C)C(=O)[C@H](O)C3=C(C)[C@@H](OC(=O)[C@H](O)[C@@H](NC(=O)OC(C)(C)C)c4ccccc4)C[C@@](O)([C@@H](OC(=O)c4ccccc4)[C@H]21)C3(C)C [Docetaxel, docetaxel]
% TGI [1, 3]: 79% | Final tumor volume (Day 24) mean +/− SEM [1, 3]: 337 +/− 29 | Log10 cell kill [1, 3]: 0.6 | T-C (tumor growth delay) [1, 3]: 14 | MDS day +/− SD [1, 3]: 38 ± 3 days | % TGI [1, 4]: 81% | Final tumor volume (Day 24) mean +/− SEM [1, 4]: 313 +/− 23 | Log10 cell kill [1, 4]: 0.7 | T-C (tumor growth delay) [1, 4]: 18 | MDS day +/− SD [1, 4]: 42 ± 6 days | % TGI [1, 5]: 80% | Final tumor volume (Day 24) mean +/− SEM [1, 5]: 325 +/− 41 | Log10 cell kill [1, 5]: 0.6 | T-C (tumor growth delay) [1, 5]: 16 | MDS day +/− SD [1, 5]: 40 ± 7 days | # of animals with tumor regression (% TR (#)) [1, 6]: 7 | % TGI [1, 6]: 104% | % TR [1, 6]: 42% | Final tumor volume (Day 24) mean +/− SEM [1, 6]: 69 +/− 10 | Log10 cell kill [1, 6]: 1.6 | T-C (tumor growth delay) [1, 6]: 39 | MDS day +/− SD [1, 6]: 63 ± 10 days | # of animals with tumor regression (% TR (#)) [1, 7]: 7 | % TGI [1, 7]: 104% | % TR [1, 7]: 45% | Final tumor volume (Day 24) mean +/− SEM [1, 7]: 65 +/− 9 | Log10 cell kill [1, 7]: 1.3 | T-C (tumor growth delay) [1, 7]: 32 | MDS day +/− SD [1, 7]: 56 ± 4 days | # of animals with tumor regression (% TR (#)) [1, 8]: 7 | % TGI [1, 8]: 103% | % TR [1, 8]: 55% | Final tumor volume (Day 24) mean +/− SEM [1, 8]: 72 +/− 14 | Log10 cell kill [1, 8]: 1.4 | T-C (tumor growth delay) [1, 8]: 35 | MDS day +/− SD [1, 8]: 59 ± 10 days | Final weight - Day 24 % change [2, 3]: +13% | Final weight - Day 24 AVG +/− SD [2, 3]: 22 ± 1 g | Weight nadir % change [2, 3]: −14% | Weight nadir day [2, 3]: 10 | Final weight - Day 24 % change [2, 4]: +12% | Final weight - Day 24 AVG +/− SD [2, 4]: 23 ± 2 g | Weight nadir % change [2, 4]: −10% | Weight nadir day [2, 4]: 10 | Final weight - Day 24 % change [2, 5]: +17% | Final weight - Day 24 AVG +/− SD [2, 5]: 23 ± 2 g | Weight nadir % change [2, 5]: −10% | Weight nadir day [2, 5]: 10 | Final weight - Day 24 % change [2, 6]: −10% | Final weight - Day 24 AVG +/− SD [2, 6]: 18 ± 2 g | Weight nadir % change [2, 6]: −13% | Weight nadir day [2, 6]: 17 | Final weight - Day 24 % change [2, 7]: −11% | Final weight - Day 24 AVG +/− SD [2, 7]: 17 ± 2 g | Weight nadir % change [2, 7]: −14% | Weight nadir day [2, 7]: 10 | Final weight - Day 24 % change [2, 8]: −12% | Final weight - Day 24 AVG +/− SD [2, 8]: 17 ± 3 g | Weight nadir % change [2, 8]: −20% | Weight nadir day [2, 8]: 17

— US10596169B2, “Cancer treatment with combination of plinabulin and taxane” (BeyondSpring Inc., priority 2013, dated 2020)
